For this experiment, the system named is Plasmodium falciparum. Description: GSK_TCMDC: Inhibition of Plasmodium falciparum 3D7 in whole erythrocytes, using parasite LDH activity as an index of growth. It counts as functional, organism-based. The following applies: Plasmodium falciparum, 3D7.

`CC(=O)N1N=C(c2ccc(Cl)cc2)Sc2c1nc(C1CCCCC1)n2C(C)=O` gave an XC50 of 249 nM.
For `CN(C)CCn1c(N)c(-c2nc3ccccc3s2)c2nc(C#N)c(C#N)nc21` the value was 1010 nM.
To `Cc1cnc(C(=O)Nc2ccc(-c3cccc(-c4nc5ccccc5[nH]4)c3)cc2)cn1` belongs 833 nM; to `Cc1n[nH]c2ccc(-c3cc(OC[C@@H](N)Cc4ccccc4)cnc3-c3ccccc3OCc3cccc(F)c3)cc12`, 1220 nM.
For `O=C(CC1SC(N2N=C(c3cccs3)CC2c2ccccc2)=NC1=O)Nc1ccccc1F` (stereo not drawn) the value was 1090 nM; for `COc1ccc2nccc(N3CCC(CCNCc4cc5c(cn4)OCCO5)CC3)c2n1`, 224 nM.
`CN(C)c1ccc2c(c1)Sc1cc(N(C)C)ccc1N2C(=O)CCCC(=O)O` yielded an XC50 of 802 nM.
With `CC(=O)C1(c2ccccc2)CCN(CCC(NC(=O)c2cc(C(F)(F)F)cc(C(F)(F)F)c2)c2ccc(Cl)c(Cl)c2)CC1` (stereo not drawn), the XC50 amounted to 1190 nM.
For `COc1ccc2c(c1)[nH]c1c(/C=C/c3ccc([N+](=O)[O-])cc3)nccc12` the value was 858 nM.
To `Cc1cc(OCCCN2CCC(NS(=O)(=O)c3ccc(Cl)c(Cl)c3)C2)c2ccccc2n1` (stereo not drawn) belongs 1050 nM.
`COc1ccc2nc(Nc3nc(-c4ccccn4)cs3)sc2c1` displayed an XC50 of 1120 nM.
As for `Cc1c(CCC#N)c(NCc2ccccc2)n2c(nc3ccccc32)c1C#N`, the XC50 is 876 nM.
To `CN1CCCN(Cc2ccc(-c3ccc(NC(=O)c4ccc(Cl)cc4)cc3)cc2)CC1` belongs 895 nM; to `CCC(CC)n1cc2c(ccc3nc(N)nc(N)c32)n1`, 81.4 nM.
For the molecule `Oc1cc2c(cc1CN1CCN(Cc3ccccc3)CC1)CCC2`, the XC50 came to 721 nM.
To `O=C(Nc1ccccc1Cc1ccccc1)c1ccccc1[N+](=O)[O-]` belongs 860 nM; to `CCn1cc(C=C2Oc3c(ccc(O)c3CN3CCCCC3)C2=O)c2cc(OC)ccc21`, 521 nM.
To `CN(C)CCCOc1ccc(-c2nc(-c3ccc4c(c3)CCC4=NO)c(-c3ccncc3)[nH]2)cc1` belongs 832 nM; to `Cc1cc(N2CCN(CC3CCN(C)CC3)CC2)nc(Nc2ccc(Cl)cc2)n1`, 698 nM; to `N=c1c2c(n(Cc3ccccc3)c3c1CCC3)CCCC2`, 867 nM.
For `CCOc1ccc(-c2nc(NC(=O)CS(=O)(=O)c3ccccc3)sc2C)cc1` the value was 510 nM.
On to `COc1cc2c(cc1OC)CN(c1cc(N)c3cc(OC)c(OC)cc3n1)CC2`, for which the XC50 stood at 552 nM.
Molecule `COc1ccc2c(NN=Cc3ccc(Cl)cc3)ccnc2c1` showed an XC50 of 865 nM.
For `Cc1ccccc1C1CCN(C2CCC(NC(=O)C3=Cc4ccccc4OC3)CC2)CC1` (stereo not drawn) the value was 935 nM; for `c1cc(CNC2Cc3ccc(-c4cccs4)cc3C2)cc(-n2ccnc2)c1` (stereo not drawn), 594 nM.
For `CC1Cc2ccccc2N1S(=O)(=O)c1cc(OCC(F)(F)F)ccc1OCC(F)(F)F` (stereo not drawn) the value was 645 nM; for `Cc1cccc(C)c1C1CCN(C2CCC(NC(=O)/C=C/c3ccccc3)CC2)CC1` (stereo not drawn), 581 nM; for `O=C(Cc1ccc(NC(=O)c2ccc(O)c(-c3ccc(Cl)c(Cl)c3)c2)cc1)NCCN1CCOCC1`, 806 nM.
In the case of `COc1ccc2nc(C)cc(Nc3ccc(Oc4ccc5ccccc5c4)c(Cl)c3)c2c1`, the XC50 worked out at 691 nM.
To `Cc1cc(N[C@@H](Cc2ccccc2)C(=O)NCc2cccs2)nc(NCCc2ccc(F)cc2)n1` belongs 854 nM; to `Cc1cc(C)cc(Oc2c(C(F)(F)F)oc3c(CN4CC(C)OC(C)C4)c(O)ccc3c2=O)c1` (stereo not drawn), 939 nM; to `CC(O)C1CCCCN1C(=O)c1cccc(-c2cccc(-c3nc4cc(F)ccc4[nH]3)c2)c1` (stereo not drawn), 536 nM.
`CCNc1cc(C(=O)N[C@@H](Cc2ccccc2)[C@H](O)CNC23CC4CC(CC(C4)C2)C3)cc(N2CCCCS2(=O)=O)c1` registered an XC50 of 219 nM.
The molecule `O=[N+]([O-])c1cccc(CNCC2CCN(CCc3ccccc3)CC2)c1` registered an XC50 of 785 nM.
With `Cn1cncc1C(=O)Nc1ccc(-c2cccc(-c3nc4cc(C(F)(F)F)ccc4[nH]3)c2)cc1`, the XC50 was 858 nM.
For `COc1ccc(CNC2Cc3ccccc3C2)cc1-c1cccc(S(=O)(=O)NCCN2CCCC2)c1` the value was 760 nM.
For `COc1ccccc1Oc1c(N(C)S(=O)(=O)c2ccc(C(C)C)cc2)nc(C(F)(F)F)nc1N(C)S(=O)(=O)c1ccc(C(C)C)cc1` the value was 846 nM.
`Fc1ccc2[nH]c(-c3ccc(-c4ccc(CNCc5cnn(-c6ccccc6)n5)cc4)cc3)nc2c1` came in with an XC50 of 540 nM.
To `CNS(=O)(=O)CCNCc1ccc(-c2ccc3ncnc(Nc4ccc(OCc5ccccc5)cc4)c3c2)o1` belongs 729 nM; to `Cc1cc(C(=O)NC2CCN(Cc3ccccc3)CC2)ccc1-c1nc2cc(Cl)c(Cl)cc2[nH]1`, 959 nM.
For `COc1ccc(O)c(C(=O)c2cc(C(=O)NCCc3ccccc3)c(=O)n(CCc3ccccc3)c2)c1` the value was 1010 nM.
For `O=c1cc(NCCCNCc2scc3c(Cl)cc(C(F)(F)F)nc23)[nH]c2ccccc12` the value was 754 nM.
The molecule `Nc1cnc(C#Cc2cc3ncnc(N(CCN4CCOCC4)c4ccc(OCc5cccc(F)c5)c(Cl)c4)c3s2)cn1` came in with an XC50 of 1050 nM.
To `Cc1ccc(NC(=O)NC2CCN(c3ccnc4ccccc34)CC2)cc1` belongs 790 nM; to `Cc1[nH]c(C)c(-c2ccc(OCCCc3ccccn3)cc2)c(=O)c1Br`, 212 nM; to `CCOC(=O)c1c(C)noc1Nc1ccc(OC)cc1`, 672 nM.
To `COc1ccc(-c2cccc(NC(=O)c3ccc(C#N)cc3)c2)cc1CN1CCCN(C)CC1` belongs 756 nM; to `c1cc(-c2ccc(CNCc3ccsc3)cc2)cc(-c2nc3ccccc3[nH]2)c1`, 156 nM; to `CN(c1cc(NC(=O)c2ccc(F)cc2)ccn1)C1CCN(Cc2cccc(O)c2)CC1`, 922 nM.
As to `Cc1cc(N(C)C)nc(Nc2ccc(NS(=O)(=O)c3ccccc3)cc2)n1`, the XC50 was 1350 nM.
Take `c1ccc2[nH]c(Nc3ccc(Nc4nc5ccccc5[nH]4)cc3)nc2c1`: the XC50 was found to be 783 nM.
`Cc1cccc2nc(-c3ccc(-c4cccc(NC(=O)c5ccncc5)c4)cc3)[nH]c12` had an XC50 of 839 nM.
For `O=C(NC1CCCc2ccccc21)[C@@H]1CCCN1C(=O)c1ccc(O)c(-c2cccc([N+](=O)[O-])c2)c1` (stereo partly drawn) the value was 678 nM.
For `OCCNc1nc(Nc2ccccc2)nc2ccccc12` the value was 128 nM; for `COc1ccc2nccc([C@@H](O)CN3CCC(NCc4ccc5c(c4)nnn5C(C)C)CC3)c2c1`, 642 nM.
For `O=C(/C=C/c1ccc(Cl)cc1Cl)NCCCCCN1CCC(c2c[nH]c3ccccc23)CC1` the value was 941 nM; for `Cc1cc(N2CCCC2)nc(Nc2ccc(NC(=O)C(C)Oc3ccccc3)cc2)n1` (stereo not drawn), 1140 nM.
Take `OCCN1CCN(C2Cc3ccc(F)cc3Sc3ccc(Cl)cc32)CC1` (stereo not drawn): the XC50 was 876 nM.
On to `Cc1ccc(NC(=O)c2ccc(NCCCN(C)Cc3ccccc3)c([N+](=O)[O-])c2)cc1F`, for which the XC50 was determined as 701 nM.
For `O=C(Nc1ccc(-c2nc3cc4ccccc4cc3[nH]2)cc1)c1cccc(Br)c1` the value was 363 nM.
Turning to `Nc1c(Cl)cc(C(O)CNCCCCCCOCCC=C2CCOCC2)cc1Cl` (stereo not drawn), the XC50 came to 634 nM.
As to `Oc1ccc(OCc2ccccn2)cc1`, the XC50 came out at 980 nM.
Turning to `COC(=O)c1cccc(CNCc2cccc(-c3ccc(-c4nc5ccccc5[nH]4)s3)c2)c1`, the XC50 was determined as 491 nM.

For the origin of these results see ChEMBL document CHEMBL1157539, “Thousands of chemical starting points for antimalarial lead identification” (Nature, 2010).
